From ChEMBL document CHEMBL1201862, “PubChem BioAssay data set” (2004)
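Exposure lasted 48 hours, with cells grown in 96-well plates and compounds tested at five concentrations. GI50 is the concentration that inhibits growth by half.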 Activity calls are given as the source filed them. Rule as the data show it: active = GI50 up to about 1.1 µM and inactive = higher.

Key:
Experiment in all cases: inhibition of tumour cell growth, NCI panel, 48 h
HCT-116 = test system: HCT-116
RPMI-8226 = test system: RPMI-8226
NCI-H522 = test system: NCI-H522
T47D = test system: T47D
SF-539 = test system: SF-539
Hs-578T = test system: Hs-578T
M14 = test system: M14
UO-31 = test system: UO-31
OVCAR-4 = test system: OVCAR-4
Malme-3M = test system: Malme-3M
OVCAR-5 = test system: OVCAR-5
ACHN = test system: ACHN
SK-MEL-2 = test system: SK-MEL-2
HT-29 = test system: HT-29
OVCAR-3 = test system: OVCAR-3
NCI/ADR-RES = test system: NCI/ADR-RES
BT-549 = test system: BT-549
SNB-19 = test system: SNB-19
COLO 205 = test system: COLO 205
CAKI-1 = test system: CAKI-1

## COc1ccc(Oc2nc3cc(C(F)(F)F)ccc3nc2C(C)C)cc1
HCT-116
  GI50: 31 µM (inactive)
RPMI-8226
  GI50: 19.4 µM (inactive)
NCI-H522
  GI50: 19.1 µM (inactive)
T47D
  GI50: 15.1 µM (inactive)
SF-539
  GI50: 41.5 µM (inactive)
Hs-578T
  GI50: 31.6 µM (inactive)
M14
  GI50: 31.6 µM (inactive)
UO-31
  GI50: 32.6 µM (inactive)
OVCAR-4
  GI50: 34.7 µM (inactive)
Malme-3M
  GI50: 24.7 µM (inactive)
OVCAR-5
  GI50: 24.9 µM (inactive)
ACHN
  GI50: 26.2 µM (inactive)
SK-MEL-2
  GI50: 18.5 µM (inactive)
HT-29
  GI50: 19 µM (inactive)
OVCAR-3
  GI50: 29.6 µM (inactive)
NCI/ADR-RES
  GI50: 19.4 µM (inactive)
BT-549
  GI50: 22.4 µM (inactive)
SNB-19
  GI50: 33.1 µM (inactive)
COLO 205
  GI50: 16 µM (inactive)
CAKI-1
  GI50: 35.2 µM (inactive)

## O=C1C(Cl)=C(Sc2nnc3c4ccccc4c4ccccc4c3n2)C(=O)c2ccccc21
HCT-116
  GI50: 16 µM (inactive)
RPMI-8226
  GI50: 13.7 µM (inactive)
NCI-H522
  GI50: 15.2 µM (inactive)
T47D
  GI50: 6.24 µM (inactive)
SF-539
  GI50: 16.1 µM (inactive)
Hs-578T
  GI50: 34.3 µM (inactive)
M14
  GI50: 15.2 µM (inactive)
UO-31
  GI50: 14.1 µM (inactive)
OVCAR-4
  GI50: 14.7 µM (inactive)
Malme-3M
  GI50: 3.26 µM (inactive)
OVCAR-5
  GI50: 23.2 µM (inactive)
ACHN
  GI50: 15.7 µM (inactive)
SK-MEL-2
  GI50: 16.6 µM (inactive)
HT-29
  GI50: 25.1 µM (inactive)
OVCAR-3
  GI50: 14 µM (inactive)
NCI/ADR-RES
  GI50: 25.5 µM (inactive)
BT-549
  GI50: 17.8 µM (inactive)
SNB-19
  GI50: 18.7 µM (inactive)
COLO 205
  GI50: 19.3 µM (inactive)
CAKI-1
  GI50: 17 µM (inactive)

## CCN1C/C(=C\c2cc(OC)c(OC)c(OC)c2)C2=NN(c3ccccc3)C(c3cc(OC)c(OC)c(OC)c3)C2C1 (configuration not stated)
HCT-116
  GI50: 1.89 µM (inactive)
RPMI-8226
  GI50: 1.13 µM (inactive)
NCI-H522
  GI50: 1.13 µM (inactive)
T47D
  GI50: 3.53 µM (inactive)
SF-539
  GI50: 0.535 µM (active)
Hs-578T
  GI50: 0.34 µM (active)
M14
  GI50: 1.7 µM (inactive)
UO-31
  GI50: 2.08 µM (inactive)
OVCAR-4
  GI50: 1.91 µM (inactive)
Malme-3M
  GI50: 0.203 µM (active)
OVCAR-5
  GI50: 2.84 µM (inactive)
ACHN
  GI50: 9.33 µM (inactive)
SK-MEL-2
  GI50: 6.84 µM (inactive)
HT-29
  GI50: 2.07 µM (inactive)
OVCAR-3
  GI50: 3.63 µM (inactive)
NCI/ADR-RES
  GI50: 1.43 µM (inactive)
BT-549
  GI50: 6.75 µM (inactive)
SNB-19
  GI50: 1.97 µM (inactive)
COLO 205
  GI50: 2.36 µM (inactive)
CAKI-1
  GI50: 0.91 µM (active)

## CCCCCCCCCCCCCC/C(C(=O)O)=C(\C)C(=O)O
HCT-116
  GI50: > 100 µM (inactive)
RPMI-8226
  GI50: 40.4 µM (inactive)
NCI-H522
  GI50: > 100 µM (inactive)
T47D
  GI50: > 100 µM (inactive)
SF-539
  GI50: > 100 µM (inactive)
Hs-578T
  GI50: > 100 µM (inactive)
M14
  GI50: > 100 µM (inactive)
UO-31
  GI50: > 100 µM (inactive)
OVCAR-4
  GI50: > 100 µM (inactive)
Malme-3M
  GI50: > 100 µM (inactive)
OVCAR-5
  GI50: > 100 µM (inactive)
ACHN
  GI50: > 100 µM (inactive)
SK-MEL-2
  GI50: > 100 µM (inactive)
HT-29
  GI50: > 100 µM (inactive)
OVCAR-3
  GI50: > 100 µM (inactive)
NCI/ADR-RES
  GI50: 97.7 µM (inactive)
BT-549
  GI50: > 100 µM (inactive)
SNB-19
  GI50: > 100 µM (inactive)
COLO 205
  GI50: > 100 µM (inactive)

## CC(=O)OCC1CCC(=C2C(=O)OC(C)(C)OC2=O)N1 (configuration not stated)
HCT-116
  GI50: > 100 µM (inactive)
RPMI-8226
  GI50: > 100 µM (inactive)
NCI-H522
  GI50: > 100 µM (inactive)
T47D
  GI50: > 100 µM (inactive)
SF-539
  GI50: > 100 µM (inactive)
Hs-578T
  GI50: > 100 µM (inactive)
M14
  GI50: > 100 µM (inactive)
UO-31
  GI50: > 100 µM (inactive)
OVCAR-4
  GI50: > 100 µM (inactive)
Malme-3M
  GI50: > 100 µM (inactive)
SK-MEL-2
  GI50: > 100 µM (inactive)
HT-29
  GI50: > 100 µM (inactive)
OVCAR-3
  GI50: > 100 µM (inactive)
NCI/ADR-RES
  GI50: > 100 µM (inactive)
BT-549
  GI50: > 100 µM (inactive)
SNB-19
  GI50: > 100 µM (inactive)
COLO 205
  GI50: > 100 µM (inactive)
CAKI-1
  GI50: > 100 µM (inactive)

## CN(C1=NCCO1)c1cccc2c1CCCC2
HCT-116
  GI50: 2.99 µM (inactive)
RPMI-8226
  GI50: 5.93 µM (inactive)
NCI-H522
  GI50: 4.16 µM (inactive)
T47D
  GI50: 8.85 µM (inactive)
SF-539
  GI50: 3.25 µM (inactive)
Hs-578T
  GI50: 8.15 µM (inactive)
M14
  GI50: 2.23 µM (inactive)
OVCAR-4
  GI50: 3.05 µM (inactive)
Malme-3M
  GI50: 2.76 µM (inactive)
OVCAR-5
  GI50: 3.9 µM (inactive)
ACHN
  GI50: 3.18 µM (inactive)
SK-MEL-2
  GI50: 4.09 µM (inactive)
HT-29
  GI50: 2.43 µM (inactive)
NCI/ADR-RES
  GI50: 3.6 µM (inactive)
BT-549
  GI50: 9.53 µM (inactive)
SNB-19
  GI50: 8.04 µM (inactive)
COLO 205
  GI50: 1.89 µM (inactive)
CAKI-1
  GI50: 3.6 µM (inactive)

## COc1ccc2cc(C(=O)O)ccc2c1OC
HCT-116
  GI50: > 100 µM (inactive)
NCI-H522
  GI50: > 100 µM (inactive)
T47D
  GI50: > 100 µM (inactive)
SF-539
  GI50: > 100 µM (inactive)
Hs-578T
  GI50: > 100 µM (inactive)
M14
  GI50: > 100 µM (inactive)
UO-31
  GI50: > 100 µM (inactive)
Malme-3M
  GI50: > 100 µM (inactive)
OVCAR-5
  GI50: > 100 µM (inactive)
ACHN
  GI50: > 100 µM (inactive)
SK-MEL-2
  GI50: > 100 µM (inactive)
HT-29
  GI50: > 100 µM (inactive)
OVCAR-3
  GI50: > 100 µM (inactive)
NCI/ADR-RES
  GI50: > 100 µM (inactive)
BT-549
  GI50: > 100 µM (inactive)
SNB-19
  GI50: > 100 µM (inactive)
COLO 205
  GI50: > 100 µM (inactive)
CAKI-1
  GI50: > 100 µM (inactive)

## COc1cc(S(=O)(=O)Nc2ccc(-c3csc(N4C(=O)C(C)SC4c4cccs4)n3)cc2)ccc1Cl (configuration not stated)
HCT-116
  GI50: 35.1 µM (inactive)
RPMI-8226
  GI50: 24.1 µM (inactive)
NCI-H522
  GI50: 20.6 µM (inactive)
T47D
  GI50: 10.8 µM (inactive)
SF-539
  GI50: 48.9 µM (inactive)
Hs-578T
  GI50: 6.17 µM (inactive)
M14
  GI50: 30.8 µM (inactive)
UO-31
  GI50: 46.3 µM (inactive)
Malme-3M
  GI50: 60.5 µM (inactive)
OVCAR-5
  GI50: > 100 µM (inactive)
ACHN
  GI50: > 100 µM (inactive)
SK-MEL-2
  GI50: 6.49 µM (inactive)
HT-29
  GI50: 30.5 µM (inactive)
OVCAR-3
  GI50: 58.5 µM (inactive)
NCI/ADR-RES
  GI50: > 100 µM (inactive)
BT-549
  GI50: 34 µM (inactive)
COLO 205
  GI50: 24.9 µM (inactive)
CAKI-1
  GI50: 50.5 µM (inactive)

## CCOC(=O)Oc1cc2ccsc2c2c1c1ccccc1n2C(=O)OCC
HCT-116
  GI50: 54.6 µM (inactive)
RPMI-8226
  GI50: 82 µM (inactive)
NCI-H522
  GI50: 32.1 µM (inactive)
T47D
  GI50: 28.6 µM (inactive)
SF-539
  GI50: 36.4 µM (inactive)
Hs-578T
  GI50: 36.4 µM (inactive)
M14
  GI50: 31.3 µM (inactive)
UO-31
  GI50: 24.2 µM (inactive)
OVCAR-4
  GI50: 40.3 µM (inactive)
Malme-3M
  GI50: 33.7 µM (inactive)
OVCAR-5
  GI50: > 100 µM (inactive)
ACHN
  GI50: 28.3 µM (inactive)
SK-MEL-2
  GI50: 48.3 µM (inactive)
HT-29
  GI50: 69.5 µM (inactive)
OVCAR-3
  GI50: 70.1 µM (inactive)
NCI/ADR-RES
  GI50: 38 µM (inactive)
BT-549
  GI50: 59 µM (inactive)
COLO 205
  GI50: > 100 µM (inactive)
CAKI-1
  GI50: 58.2 µM (inactive)

## CCCCn1c2c(c3ccccc3c1=O)C(=O)c1ccccc1-2
HCT-116
  GI50: > 100 µM (inactive)
RPMI-8226
  GI50: > 100 µM (inactive)
NCI-H522
  GI50: 37.8 µM (inactive)
T47D
  GI50: 16.2 µM (inactive)
SF-539
  GI50: 49.1 µM (inactive)
Hs-578T
  GI50: 33.7 µM (inactive)
M14
  GI50: > 100 µM (inactive)
UO-31
  GI50: 2.79 µM (inactive)
OVCAR-4
  GI50: 1.82 µM (inactive)
Malme-3M
  GI50: > 100 µM (inactive)
OVCAR-5
  GI50: > 100 µM (inactive)
SK-MEL-2
  GI50: > 100 µM (inactive)
HT-29
  GI50: 13.3 µM (inactive)
OVCAR-3
  GI50: > 100 µM (inactive)
NCI/ADR-RES
  GI50: > 100 µM (inactive)
BT-549
  GI50: > 100 µM (inactive)
COLO 205
  GI50: 20.4 µM (inactive)
CAKI-1
  GI50: 25.9 µM (inactive)

## CCOC(=O)Cc1c(C)c2cc(C(=O)c3ccccc3)c(O)cc2oc1=O
HCT-116
  GI50: 33.3 µM (inactive)
RPMI-8226
  GI50: 29.3 µM (inactive)
NCI-H522
  GI50: 27 µM (inactive)
T47D
  GI50: 28.2 µM (inactive)
SF-539
  GI50: 20.4 µM (inactive)
Hs-578T
  GI50: 26.2 µM (inactive)
M14
  GI50: 34.3 µM (inactive)
OVCAR-4
  GI50: 31.8 µM (inactive)
Malme-3M
  GI50: 25.4 µM (inactive)
OVCAR-5
  GI50: 26 µM (inactive)
ACHN
  GI50: 29.3 µM (inactive)
SK-MEL-2
  GI50: 14.9 µM (inactive)
HT-29
  GI50: 39.2 µM (inactive)
OVCAR-3
  GI50: 17.8 µM (inactive)
NCI/ADR-RES
  GI50: 26.1 µM (inactive)
BT-549
  GI50: 17.8 µM (inactive)
SNB-19
  GI50: 33.7 µM (inactive)
COLO 205
  GI50: 18.5 µM (inactive)
CAKI-1
  GI50: 30.6 µM (inactive)
